Experiments:
[1] = molecular target: T1, interaction between PD-1 and PD-L1 (Homo sapiens, UniProt Q9NZQ7); assay: PD1-PDL1 HTRF binding activity test; conditions: Cisbio PD-1/PD-L1 binding assay kit; percent inhibition vs DMSO
T1 construct: purchased Cisbio 64ICP01PEG or 64ICP01PEH
Experimental: The effect of compounds of the examples of the present invention on the interaction between PD-1 and PD-L1 was determined by the PD-1/PD-L1 binding assay kit from Cisbio (#64ICP01PEG or 64ICP01PEH). The detailed experimental process was as follows:
1) Pre-diluted compound solution, 4 μL of Tag1-PD-L1 and 4 μL of Tag2-PD1 were added to each well of a 384-well plate;
2) After the mixture was incubated at room temperature for 15 min, 5 μL of anti-Tag1-Eu3+ antibody and 5 μL of anti-Tag2-XL665 antibody were then added;
3) After incubated for 2 hrs at room temperature or overnight at 4° C., plates were read on Envision of Perkin Elmer; and readings at 665 nm and 620 nm were recorded, and the ratio of the two readings was taken as a reading for each well;
4) The reading of each well after compound treatment was compared with the reading of DMSO treated wells to obtain the percent inhibition of the compound; and
5) IC50 values of compounds of the examples of the present invention were determined by non-linear regression analysis of percent inhibition at different compound concentrations.

[2] = molecular target: T2, interaction between PD-1 and PD-L1 expressed on cell surfaces (Jurkat/NF-κB-luc/PD1 cells cocultured with Raji-PD-L1 cells) (Homo sapiens, UniProt Q9NZQ7); assay: Jurkat reporter gene cellular assay; assay type: cell-based; conditions: OKT3 1 μg/mL stimulation, 6 hrs, activation fold vs DMSO
T2 construct: expressed in transfected cells; host or cells: Raji cells (PD-L1); Jurkat cells (PD-1, NF-κB-luc reporter)
Experimental: The effect of compounds of the examples of the present invention on the interaction between PD-1 and PD-L1 expressed on cell surfaces, and the related influence on T cell functions, were determined by a Jurkat reporter gene cellular assay.
Briefly, the reporter gene plasmid of NF-κB-luc and the plasmid of human PD-1 were transfected into Jurkat cells to establish a stably transfected cell line capable of stably expressing both PD-1 and NF-κB-Luc reporter genes; the expression level of PD-1 on the cell surface was confirmed by flow cytometry; and the expression of the reporter gene was confirmed via the response of the reporter gene stimulated by OKT-3 and Raji cells.
In addition, the plasmid of human PD-L1 was transfected into Raji cells to obtain a cell line capable of stably expressing PD-L1. Jurkat/NF-κB-luc/PD1 cells and Raji-PD-L1 cells were then cocultured and stimulated with OKT-3. On this basis, the compounds were added, and the enhancement of the signal pathway of T cell activation by the inhibitory effect of the compounds on the interaction between PD-1 and PD-L1 was evaluated by readings of reporter gene responses. The specific experimental process was as follows:
1) 30 μL of compound or antibody solution was added to each well of a white 96-well plate (Corning, 3610) at different diluted concentrations, and 10 μL of OKT3 (Biolegend, 317326) was then added (the final concentration of OKT3: 1 μg/mL);
2) 20 μL of Raji-PD-L1 cell suspension was added to each well with 5*10^4 cells for each well, and was incubated in an incubator for 20 min;
3) 20 μL of Jurkat/NF-Kb-luc/PD-1 cell suspension was added to each well with 5*10^4 cells for each well, and was well mixed, and 6 hrs later, Bright-glo (Promega, E2620) was applied and plates were read on Envision;
4) The reading of each well treated with the compound was compared with the reading of each well treated with DMSO to obtain the activation fold of the compound; and
5) EC50 values of compounds of the examples of the present invention were determined by non-linear regression analysis of activation folds at different compound concentrations.

T1 sequence (Q9NZQ7 19-238 limits assumed): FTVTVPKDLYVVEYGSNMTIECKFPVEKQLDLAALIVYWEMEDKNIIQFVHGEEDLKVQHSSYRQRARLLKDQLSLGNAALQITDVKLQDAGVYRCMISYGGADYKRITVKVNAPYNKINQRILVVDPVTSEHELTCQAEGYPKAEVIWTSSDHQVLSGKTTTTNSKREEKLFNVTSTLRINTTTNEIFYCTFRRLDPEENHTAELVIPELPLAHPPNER
T2 sequence (Q9NZQ7 19-290): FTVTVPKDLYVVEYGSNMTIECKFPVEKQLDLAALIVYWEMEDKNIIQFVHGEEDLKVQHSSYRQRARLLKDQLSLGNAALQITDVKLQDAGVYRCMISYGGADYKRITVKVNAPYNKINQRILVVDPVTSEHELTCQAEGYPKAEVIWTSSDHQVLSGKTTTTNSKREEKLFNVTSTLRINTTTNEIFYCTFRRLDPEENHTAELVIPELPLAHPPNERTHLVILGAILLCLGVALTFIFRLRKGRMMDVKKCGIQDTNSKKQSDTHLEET

SMILES	IC50 [1] [nM]	EC50 [2] [nM]
Cc1c(NC(=O)c2cc(C3CC3)c(CN3CC[C@@H](O)C3)cn2)cccc1-c1cccc(NC(=O)c2cc(C3CC3)c(CN3CCCC[C@H]3C(=O)O)cn2)c1C [Example 13, (S)-1-((4-cyclopropyl-6-((3′-(4-cyclopropyl-5-(((R)-3-hydroxypyrrolidin-1-yl)methyl)picolinamido)-2,2′-dimethyl-[1,1′-biphenyl]-3-yl)carbamoyl)pyridin-3-yl)methyl)piperidine-2-carboxylic acid]	1.48	11.8
Cc1c(NC(=O)c2cc(C3CC3)c(CN3CCC[C@@H]3CO)cn2)cccc1-c1cccc(NC(=O)c2cc(C3CC3)c(CN3CCCC[C@H]3C(=O)O)cn2)c1C [Example 28, (S)-1-((4-cyclopropyl-6-((3′-(4-cyclopropyl-5-(((R)-2-(hydroxymethyl)pyrolidin-1-yl)methyl)picolinamido)-2, 2′-dimethyl-[1,1′-biphenyl]-3-yl)carbamoyl)pyridin-3-yl)methyl)piperidine-2-carboxylic acid]	4.17	35.3
Cc1c(NC(=O)c2cc(C3CC3)c(CNC3CCCC3)cn2)cccc1-c1cccc(NC(=O)c2cc(C3CC3)c(CN3CCCC[C@H]3C(=O)O)cn2)c1C [Example 11, (S)-1-((4-cyclopropyl-6-((3′-(4-cyclopropyl-5-((cyclopentylamino)methyl)picolinamido)-2,2′-dimethyl-[1,1′-biphenyl]-3-yl)carbamoyl)pyridin-3-yl)methyl) piperidine-2-carboxylic acid]	3.19	14.5
CCOC(=O)[C@H](CO)NCc1cnc(C(=O)Nc2cccc(-c3cccc(NC(=O)c4cc(C5CC5)c(CN5CCCC[C@H]5C(=O)O)cn4)c3C)c2C)cc1C1CC1 [Example 31, (S)-1-((4-cyclopropyl-6-((3′-(4-cyclopropyl-5-((((S)-1-ethoxy-3-hydroxy-1-oxopropan-2-yl)amino)methyl)picolinamido)-2,2′-dimethyl-[1,1′-biphenyl]-3-yl)carbamoyl)pyridin-3-yl)methyl) piperidine-2-carboxylic acid]	2.57	42.6
Cc1c(NC(=O)c2cc(C3CC3)c(CNC3COC3)cn2)cccc1-c1cccc(NC(=O)c2cc(C3CC3)c(CN3CCCC[C@H]3C(=O)O)cn2)c1C [Example 23, (S)-1-((4-cyclopropyl-6-((3′-(4-cyclopropyl-5-((oxetan-3-ylamino)methyl)picolinamido)-2,2′-dimethyl-[1,1′-biphenyl]-3-yl)carbamoyl)pyridin-3-yl)methyl)piperidine-2-carboxylic acid]	2.57	77.5
Cc1c(NC(=O)c2cc(C3CC3)c(CN3CCC[C@H]3CO)cn2)cccc1-c1cccc(NC(=O)c2cc(C3CC3)c(CN3CCCC[C@H]3C(=O)O)cn2)c1C [Example 27, (S)-1-((4-cyclopropyl-6-((3′-(4-cyclopropyl-5-(((S)-2-(hydroxymethyl)pyrolidin-1-yl)methyl)picolinamido)-2, 2′-dimethyl-[1,1′-biphenyl]-3-yl)carbamoyl)pyridin-3-yl)methyl)piperidine-2-carboxylic acid]	2.62	27.3
Cc1c(NC(=O)c2cc(C3CC3)c(CNC(C)C)cn2)cccc1-c1cccc(NC(=O)c2cc(C3CC3)c(CN3CCCC[C@H]3C(=O)O)cn2)c1C [Example 9, (S)-1-((4-cyclopropyl-6-((3′-(4-cyclopropyl-5-((isopropylamino)methyl)picolinamido)-2,2′-dimethyl-[1,1′-biphenyl]-3-yl)carbamoyl)pyridin-3-yl)methyl) piperidine-2-carboxylic acid]	5.1	33.9
Cc1c(NC(=O)c2cc(C3CC3)c(CNCCO)cn2)cccc1-c1cccc(NC(=O)c2cc(C3CC3)c(CN[C@H](CO)C(=O)O)cn2)c1C [Example 35, ((4-cyclopropyl-6-((3′-(4-cyclopropyl-5-(((2-hydroxyethyl)amino)methyl)picolinamido)-2,2′-dimethyl-[1,1′-biphenyl]-3-yl)carbamoyl)pyridin-3-yl)methyl)-D-serine]	1.95	28.6
CCOC(=O)[C@@H](CO)NCc1cnc(C(=O)Nc2cccc(-c3cccc(NC(=O)c4cc(C5CC5)c(CN5CC(C)(O)C5)cn4)c3C)c2C)cc1C1CC1 [Example 36-1, ethyl ((4-cyclopropyl-6-((3′-(4-cyclopropyl-5-((3-hydroxy-3-methylazetidin-1-yl)methyl)picolinamido)-2,2′-dimethyl-[1,1′-biphenyl]-3-yl)carbamoyl)pyridin-3-yl)methyl)-D-serinate]	64.3	–

Now those with a lower IC50 [1], led by results:

IC50 [1] [nM]	EC50 [2] [nM]	SMILES
0.97	18.1	Cc1c(NC(=O)c2cc(C3CC3)c(CN[C@H](CO)C(=O)O)cn2)cccc1-c1cccc(NC(=O)c2cc(C3CC3)c(CN3CCCC[C@H]3C(=O)O)cn2)c1C [Example 30, (S)-1-((6-((3′-(5-((((R)-1-carboxy-2-hydroxyethyl)amino)methyl)-4-cyclopropylpicolinamido)-2,2′-dimethyl-[1,1′-biphenyl]-3-yl)carbamoyl)-4-cyclopropylpyridin-3-yl)methyl)piperidine-2-carboxylic acid]
0.91	62.3	Cc1c(NC(=O)c2cc(C3CC3)c(CN[C@H](CO)C(=O)O)cn2)cccc1-c1cccc(NC(=O)c2cc(C3CC3)c(CN3CCC[C@H]3CO)cn2)c1C [Example 54]
0.91	8.7	Cc1c(NC(=O)c2cc(C3CC3)c(CN[C@H]3CCOC3)cn2)cccc1-c1cccc(NC(=O)c2cc(C3CC3)c(CN3CCCC[C@H]3C(=O)O)cn2)c1C [Example 25, (S)-1-((4-cyclopropyl-6-((3′-(4-cyclopropyl-5-((((S)-tetrahydrofuran-3-yl)amino)methyl)picolinamido)-2,2′-dimethyl-[1,1′-biphenyl]-3-yl)carbamoyl)pyridin-3-yl)methyl)piperidine-2-carboxylic acid]
1.07	6.8	Cc1c(NC(=O)c2cc(C3CC3)c(CNCCO)cn2)cccc1-c1cccc(NC(=O)c2cc(C3CC3)c(CN3CCCC[C@H]3C(=O)O)cn2)c1C [Example 1, (S)-1-((4-cyclopropyl-6-((3′-(4-cyclopropyl-5-(((2-hydroxyethyl)amino)methyl)picolinamido)-2,2′-dimethyl-[1,1′-biphenyl]-3-yl)carbamoyl)pyridin-3-yl)methyl)piperidine-2-carboxylic acid]
1.27	23.8	CCNCc1cnc(C(=O)Nc2cccc(-c3cccc(NC(=O)c4cc(C5CC5)c(CN5CCCC[C@H]5C(=O)O)cn4)c3C)c2C)cc1C1CC1 [Example 8, (S)-1-((4-cyclopropyl-6-((3′-(4-cyclopropyl-5-((ethylamino)methyl)picolinamido)-2,2′-dimethyl-[1,1′-biphenyl]-3-yl)carbamoyl)pyridin-3-yl)methyl) piperidine-2-carboxylic acid]
1.07	14.9	Cc1c(NC(=O)c2cc(C3CC3)c(CNC(C)CO)cn2)cccc1-c1cccc(NC(=O)c2cc(C3CC3)c(CN3CCCC[C@H]3C(=O)O)cn2)c1C (stereo in doubt) [Example 3, (S)-1-((4-cyclopropyl-6-((3′-(4-cyclopropyl-5-((((R)-1-hydroxypropan-2-yl)amino)methyl)picolinamido)-2,2′-dimethyl-[1,1′-biphenyl]-3-yl)carbamoyl)pyridin-3-yl)methyl)piperidine-2-carboxylic acid]
1.21	9.2	Cc1c(NC(=O)c2cc(C3CC3)c(CN[C@H](C)CO)cn2)cccc1-c1cccc(NC(=O)c2cc(C3CC3)c(CN3CCCC[C@H]3C(=O)O)cn2)c1C [Example 2, (S)-1-((4-cyclopropyl-6-((3′-(4-cyclopropyl-5-((((R)-1-hydroxypropan-2-yl)amino)methyl)picolinamido)-2,2′-dimethyl-[1,1′-biphenyl]-3-yl)carbamoyl)pyridin-3-yl)methyl)piperidine-2-carboxylic acid]
